Assay results reported in PMC11845477, “Exploring the principles behind antibiotics with limited resistance” (Nature Communications, 2025).
Where a SMILES comes first, the peptide text is derived from it. Bridges are numbered along the chain shown (N, C = ends). [ ]: non-standard residue; d: D form. The star is where a group is joined. X2 = CC[C@H](C)CCCCC(=O)*; Dab = NCC[C@H](N)C(=O)O

Assays:
[1] = system: P. aeruginosa ATCC BAA-3107 (SEN) and P. aeruginosa LESB58 (MDR); experiment: Adaptive laboratory evolution (ALE), relative MIC of evolved lines; type: cell-based, Pseudomonas aeruginosa; details: for Relative MIC: ALE, Pseudomonas aeruginosa ATCC BAA 3107 (PA-SEN)
In short: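 Ten parallel populations per antibiotic–ancestor pair were evolved in MHB at 37 °C, starting near 50% growth-inhibiting drug. Every 72 h they were passaged into 0.5–2.5× increasing concentrations, keeping the highest-drug well with OD600 > 0.2.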

[2] = system: mutated genes in antibiotic-adapted lines; experiment: Whole genome sequencing and comparative mutational analysis of adapted lines; details: lines adapted in laboratory evolution
Excerpt: We focused on the resistance mechanisms of DT permeabilizers and ST permeabilizers (Fig. 5a), as these antibiotics commonly disintegrate the bacterial membrane, and therefore the resistance mechanisms may overlap.
Genes are categorized based on their cellular localization using PSORT (Protein Subcellular Localization Prediction Tool). They are further classified according to their involvement in specific metabolic or resistance pathways using the KEGG (Kyoto Encyclopedia of Genes and Genomes) and COG (Clusters of Orthologous Genes) databases.
To identify potential antibiotic resistance mutations, we selected 2 to 5 lines from the frequency-of-resistance (FoR) and adaptive laboratory evolution (ALE) experiments for whole genome sequencing. Resistant populations were grown overnight in antibiotic-free medium, and DNA was isolated using the GenElute Bacterial Genomic DNA Kit (Sigma), following the manufacturer’s instructions. DNA was eluted in 120 µl of RNAse-free water over two elution steps, and 60 µl of the eluted DNA was further concentrated using the Zymo DNA Clean and Concentrator Kit. DNA concentration was measured with a Qubit Fluorometer and set to 1 ng/µl per sample. Sequencing libraries were prepared using the Nextera XT DNA library preparation kit (Illumina) and sequenced on an Illumina NextSeq 500 platform, generating 2 × 150 bp paired-end reads.
To identify and annotate variants, sequencing reads were mapped to their corresponding reference genomes using the Burrows-Wheeler Aligner (BWA)[75]. PCR duplicates were removed using Picard Mark Duplicates (see http://broadinstitute.github.io/picard) and reads with more than 6 mismatches were discarded. Variants (SNPs and INDELs) were called with Freebayes[76] and filtered using vcffilter[77], retaining only those with a quality score above 100. Rare variants were not excluded, but potential artefacts were manually inspected using IGV[78]. Variants were annotated with SnpEf, keeping only those absent in the ancestor. Mutations appearing in more than nine lines were excluded, as these were likely present in the ancestor. […]

[3] = system: polymyxin B-resistant lines of E. coli (EC-SEN); experiment: Cross-resistance of polymyxin B resistant evolved lines, relative MIC; type: cell-based, Escherichia coli
Experimental: 3 independently evolved lines from each investigated species were studied, including E. coli (EC), K. pneumoniae (KP), A. baumannii (AB), and P. aeruginosa (PA). […] The distances between antibiotics were computed using the Euclidean distance method based on the log-transformed MIC values. The clustering was performed using the complete linkage method. […] For detailed information on antibiotic and bacterial strain abbreviations, see Supplementary Data 1. Source data are provided as a Source Data file.
(§1) A robotic liquid handling system was used to automatically prepare a 11 to 16-step serial dilution in 384-well microtiter plates (Greiner). A final concentration of 5 × 10^5 bacterial cells per mL were inoculated into each well containing 60 µL MHB medium. Bacterial cultures were incubated at 37 °C with continuous shaking (Infors shaker, 900 rpm with 3 mm throw) for 18 hours (2 replicates from each). Cell growth was monitored by measuring the optical density (OD600 values, using Biotek Synergy microplate reader). MIC was defined as the antibiotic concentration of complete growth inhibition (i.e., OD600 < 0.05). Relative MIC was calculated as follows:1 relativeMIC=MICevolved/MICancestor […]
Each data point represents a distinct
Boxplots show the median, first and third quartiles, with whiskers showing the 5th and 95th percentiles. P values were calculated using Dunn's post-hoc test with Benjamini-Hochberg correction (NS indicates p > 0.05, ** / **** indicates p < 0.01 […]
(§2) For detailed information on antibiotic and bacterial strain abbreviations, see Supplementary Table 1. Source data are provided as a Source […]
(§3) (1 picture or pasted object on this page, not shown here)

[4] = system: polymyxin B-resistant lines of A. baumannii (AB-SEN); experiment: as above; type: cell-based, Acinetobacter baumannii
Excerpt: To further investigate potential overlaps in resistance mechanisms, we examined the extent of cross-resistance between polymyxin B and other antibiotics that target the bacterial membrane.
Fig. 7 Cross-resistance of polymyxin B resistant lines to ST and DT permeabilizer antibiotics. […] 3 independently evolved lines from each investigated species were studied, including E. coli (EC), K. pneumoniae (KP), A. baumannii (AB), and P. aeruginosa (PA). Gray color of the main heatmap indicates combinations not tested due to intrinsic resistance of ancestor strain. The additional heatmap to the right depicts genes mutated in each polymyxin B-adapted line and their involvement in specific cellular processes based on KEGG (Kyoto Encyclopedia of Genes and Genomes) and COG (Clusters of Orthologous Genes) databases. The distances between antibiotics were computed using the Euclidean distance method based on the log-transformed MIC values. The clustering was performed using the complete linkage method. […] For detailed information on antibiotic and bacterial strain abbreviations, see Supplementary Data 1. Source data are provided as a Source Data file.
as §1
Supplementary Figure 6. Susceptibility of Polymyxin B resistant lines to other ST and DT […]
dividing the MIC of the evolved line by that of the corresponding ancestor) of 12 polymyxin B resistant lines to ST and DT permeabilizer antibiotics used in this study. Each data point represents a distinct adaptive laboratory evolved polymyxin B resistant line. Boxplots show the median, first and third quartiles, with whiskers showing the 5th and 95th percentiles. P values were calculated using Dunn's post-hoc test with Benjamini-Hochberg correction (NS indicates p > 0.05, ** / **** indicates p < 0.01 / 0.0001, respectively). The resistance level of polymyxin B resistant lines to polymyxin B (PMB), […]
as §2, §3

[5] = EC-SEN, polymyxin B-resistant evolved line 4, MIC evolved/MIC ancestor
[6] = EC-SEN, polymyxin B-resistant evolved line 6, MIC evolved/MIC ancestor
[7] = EC-SEN, polymyxin B-resistant evolved line 10, MIC evolved/MIC ancestor
[8] = polymyxin B-resistant evolved line 4 of EC-SEN, MIC relative to ancestor
[9] = polymyxin B-resistant evolved line 6 of EC-SEN, MIC relative to ancestor
[10] = polymyxin B-resistant evolved line 10 of EC-SEN, MIC relative to ancestor
[11] = AB-SEN, polymyxin B-resistant evolved line 2, MIC evolved/MIC ancestor
[12] = AB-SEN, polymyxin B-resistant evolved line 6, MIC evolved/MIC ancestor
[13] = AB-SEN, polymyxin B-resistant evolved line 9, MIC evolved/MIC ancestor
[14] = polymyxin B-resistant evolved line 2 of AB-SEN, MIC relative to ancestor
[15] = polymyxin B-resistant evolved line 6 of AB-SEN, MIC relative to ancestor
[16] = polymyxin B-resistant evolved line 9 of AB-SEN, MIC relative to ancestor

Compound	overlap in the set of mutated genes associated with ST permeabilizers [2]	Relative MIC [3, 5]	Relative MIC [3, 6]	Relative MIC [3, 7]	Relative MIC [3, 8]	Relative MIC [3, 9]	Relative MIC [3, 10]	Relative MIC [4, 11]	Relative MIC [4, 12]	Relative MIC [4, 13]	Relative MIC [4, 14]	Relative MIC [4, 15]	Relative MIC [4, 16]	further results
POL7306	8.12%	1	2	2	1	2	2	32	32	8	32	32	8	Relative MIC ([1]; evolved line 1): 2; Relative MIC ([1]; evolved line 2): 2; Relative MIC ([1]; evolved line 3): 2; Relative MIC ([1]; evolved line 4): 2; Relative MIC ([1]; evolved line 6): 2; Relative MIC ([1]; evolved line 8): 2
CC(C)c1ccc(Cn2ccc3c4c(N)nc(NC5CC5)nc4ccc32)cc1 [SCH79797]	0.6%	1	1	1	1	1	1	1	0.5	1	1	0.5	1	
CC[C@H](C)CCCCC(=O)N[C@@H](CCN)C(=O)N[C@H](C(=O)N[C@@H](CCN)C(=O)N[C@H]1CCNC(=O)[C@H]([C@@H](C)O)NC(=O)[C@H](CCN)NC(=O)[C@H](CCN)NC(=O)[C@H](CC(C)C)NC(=O)[C@@H](Cc2ccccc2)NC(=O)[C@H](CCN)NC1=O)[C@@H](C)O [Polymyxin B] (X2-[Dab]T[Dab][Dab][Dab][dF]L[Dab][Dab]T; lactam 4-C (inferred); N-terminus assumed)		64	32	32	64	32	32	64	1024	64	64	1024	64	Relative MIC (log10) ([1]; PA-MDR (Pseudomonas aeruginosa LESB 58), evolved line 1): 1.505 log10; Relative MIC (log10) ([1]; PA-MDR (Pseudomonas aeruginosa LESB 58), evolved line 6): 1.806 log10; Relative MIC (log10) ([1]; PA-MDR, Pseudomonas aeruginosa LESB 58, evolved line 9): 1.806 log10; Relative MIC (log10) ([1]; PA-MDR, Pseudomonas aeruginosa LESB 58, evolved line 2): 2.107 log10; Relative MIC (log10) ([1]; PA-MDR, Pseudomonas aeruginosa LESB 58, evolved line 7): 1.204 log10; Relative MIC (log10) ([1]; PA-SEN, Pseudomonas aeruginosa ATCC BAA 3107, evolved line 1): 1.505 log10; Relative MIC (log10) ([1]; PA-SEN, Pseudomonas aeruginosa ATCC BAA 3107, evolved line 4): 1.505 log10; Relative MIC (log10) ([1]; PA-SEN, Pseudomonas aeruginosa ATCC BAA 3107, evolved line 5): 1.505 log10; Relative MIC (log10) ([1]; PA-SEN, Pseudomonas aeruginosa ATCC BAA 3107, evolved line 7): 1.204 log10; Relative MIC (log10) ([1]; PA-SEN, Pseudomonas aeruginosa ATCC BAA 3107, evolved line 8): 1.204 log10
Tridecaptin M152-P3	2.5%													
